Source: ChEMBL document CHEMBL6096649, “Enantiomeric C-6 fluorinated swainsonine derivatives as highly selective and potent inhibitors of α-mannosidase and α-l-rhamnosidase: Design, synthesis and structure-activity relationship study” (Eur J Med Chem, 2025)
pIC50, pKi: −log10 of the molar value.

Key:
[1] = Inhibition of human liver Alpha-mannosidase
[2] = target: Alpha-galactosidase (Coffea arabica) (UniProt Q42656); assay: Inhibition of coffee bean alpha-galactosidase using p-nitrophenyl glycoside as substrate assessed as release of p-nitrophenol at 1000 uM by spectrometric analysis relative to control
Bos taurus [3] = organism: Bos taurus; assay: Inhibition of bovine liver beta-galactosidase using p-nitrophenyl glycoside as substrate assessed as release of p-nitrophenol at 1000 uM by spectrometric analysis relative to control
[4] = target: T1, Alpha-mannosidase (Canavalia ensiformis) (UniProt C0HJB3); assay: Inhibition of jack bean alpha-mannosidase using p-nitrophenyl glycoside as substrate assessed as release of p-nitrophenol at 1000 uM by spectrometric analysis relative to control
T1 sequence (whole entry): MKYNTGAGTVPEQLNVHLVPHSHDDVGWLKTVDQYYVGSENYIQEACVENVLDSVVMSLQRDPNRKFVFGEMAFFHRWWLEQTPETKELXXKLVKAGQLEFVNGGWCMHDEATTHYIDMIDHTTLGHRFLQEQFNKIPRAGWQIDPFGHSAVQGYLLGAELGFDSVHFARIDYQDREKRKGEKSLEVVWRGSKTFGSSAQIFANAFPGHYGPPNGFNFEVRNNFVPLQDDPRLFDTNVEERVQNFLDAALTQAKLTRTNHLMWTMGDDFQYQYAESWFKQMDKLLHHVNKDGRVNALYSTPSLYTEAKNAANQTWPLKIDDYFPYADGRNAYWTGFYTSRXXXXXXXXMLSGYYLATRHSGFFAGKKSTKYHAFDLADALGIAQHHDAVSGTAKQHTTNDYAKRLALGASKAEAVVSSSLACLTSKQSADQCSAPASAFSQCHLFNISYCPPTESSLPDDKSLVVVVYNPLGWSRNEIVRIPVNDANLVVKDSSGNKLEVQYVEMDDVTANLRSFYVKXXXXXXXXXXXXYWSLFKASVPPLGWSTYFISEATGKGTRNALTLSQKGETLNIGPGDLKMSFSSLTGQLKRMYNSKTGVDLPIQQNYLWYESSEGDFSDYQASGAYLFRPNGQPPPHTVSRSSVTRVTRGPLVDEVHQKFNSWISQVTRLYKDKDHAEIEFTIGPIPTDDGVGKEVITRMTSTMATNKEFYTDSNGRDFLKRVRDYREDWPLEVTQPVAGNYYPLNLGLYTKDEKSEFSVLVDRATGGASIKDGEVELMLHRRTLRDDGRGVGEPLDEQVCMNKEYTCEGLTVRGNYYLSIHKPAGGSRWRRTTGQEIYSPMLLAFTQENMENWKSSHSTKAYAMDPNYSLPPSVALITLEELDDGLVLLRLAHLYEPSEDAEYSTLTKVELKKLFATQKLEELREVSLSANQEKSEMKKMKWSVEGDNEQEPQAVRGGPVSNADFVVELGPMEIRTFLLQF

Penicillium decumbens = assay: Inhibition of Penicillium decumbens alpha-L-rhamnosidase using p-nitrophenyl glycoside as substrate assessed as release of p-nitrophenol at 1000 uM by spectrometric analysis relative to control
[5] = target: Alpha-glucosidase (Saccharomyces cerevisiae S288c) (UniProt P53341+P38158+P07265); assay: Inhibition of yeast Alpha-glucosidase using p-nitrophenyl glycoside as substrate assessed as p-nitrophenol release at 1000 uM by spectrometric analysis relative to control; format: protein assay
[6] = target: Alpha glucosidase (Homo sapiens) (UniProt O43451+P10253+P14410+Q2M2H8); assay: Inhibition of human Alpha-glucosidase using p-nitrophenyl glycoside as substrate assessed as p-nitrophenol release at 1000 uM by spectrometric analysis relative to control; format: protein assay
Prunus dulcis = assay: Inhibition of almond Beta-glucosidase using p-nitrophenyl glycoside as substrate assessed as release of p-nitrophenol at 1000 uM by spectrometric analysis relative to control
Bos taurus [7] = organism: Bos taurus; assay: Inhibition of bovine liver beta-glucuronidase using p-nitrophenyl glycoside as substrate assessed as release of p-nitrophenol at 1000 uM by spectrometric analysis relative to control
Escherichia coli = assay: Inhibition of Escherichia coli beta-glucuronidase using p-nitrophenyl glycoside as substrate assessed as release of p-nitrophenol at 1000 uM by spectrometric analysis relative to control
Helix pomatia = assay: Inhibition of snail beta-mannosidase using p-nitrophenyl glycoside as substrate assessed as release of p-nitrophenol at 1000 uM by spectrometric analysis relative to control
Aspergillus niger = assay: Inhibition of Aspergillus niger amyloglucosidase using p-nitrophenyl glycoside as substrate assessed as release of p-nitrophenol at 1000 uM by spectrometric analysis relative to control
Oryza sativa = assay: Inhibition of rice Alpha-glucosidase using p-nitrophenyl glycoside as substrate assessed as p-nitrophenol release at 1000 uM by spectrometric analysis relative to control
Homo sapiens = organism: Homo sapiens; assay: Inhibition of human lysosome beta-glucosidase using p-nitrophenyl glycoside as substrate assessed as release of p-nitrophenol at 1000 uM by spectrometric analysis relative to control
Bos taurus [8] = organism: Bos taurus; assay: Inhibition of bovine liver beta-glucosidase using p-nitrophenyl glycoside as substrate assessed as release of p-nitrophenol at 1000 uM by spectrometric analysis relative to control
Rattus norvegicus = organism: Rattus norvegicus; assay: Inhibition of rat intestinal Alpha-glucosidase using p-nitrophenyl glycoside as substrate assessed as p-nitrophenol release at 1000 uM by spectrometric analysis relative to control
Sus scrofa = organism: Sus scrofa; assay: Inhibition of porcine kidney Alpha alpha-trehalase using p-nitrophenyl glycoside as substrate assessed as release of p-nitrophenol at 1000 uM by spectrometric analysis relative to control

Alpha-galactosidase (Coffea arabica), sequence (Q42656 16-378 limits assumed): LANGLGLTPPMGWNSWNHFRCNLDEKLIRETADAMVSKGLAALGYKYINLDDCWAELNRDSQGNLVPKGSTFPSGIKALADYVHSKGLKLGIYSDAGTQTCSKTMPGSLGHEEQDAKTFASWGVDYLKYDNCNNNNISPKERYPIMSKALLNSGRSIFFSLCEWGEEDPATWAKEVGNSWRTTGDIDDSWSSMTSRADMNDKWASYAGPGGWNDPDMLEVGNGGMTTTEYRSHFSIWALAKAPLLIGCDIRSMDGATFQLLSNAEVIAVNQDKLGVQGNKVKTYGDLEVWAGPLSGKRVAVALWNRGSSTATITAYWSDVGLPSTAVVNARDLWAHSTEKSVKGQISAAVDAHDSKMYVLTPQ

## OC[C@H]1[C@@H](O)[C@@H](O)CN1Cc1ccc(I)cc1
[1]
  pIC50: 7.05

## O[C@@H]1[C@@H]2[C@@H](O)C[C@H](F)CN2C[C@@H]1O
[2]
  inhibition: 0%
Bos taurus [3]
  inhibition: 11.7%
[4]
  inhibition: 3.9%
Penicillium decumbens
  inhibition: 0.43%
[5]
  inhibition: 4.5%
[6]
  inhibition: 5.1%
Prunus dulcis
  inhibition: 0%
Bos taurus [7]
  inhibition: 12.5%
Escherichia coli
  inhibition: 9.3%
Helix pomatia
  inhibition: 2.5%
Aspergillus niger
  inhibition: 17.7%
Oryza sativa
  inhibition: 0%
Homo sapiens
  inhibition: 9.6%
Bos taurus [8]
  inhibition: 16%
Rattus norvegicus
  inhibition: 18.3%

## OC[C@H](NC[C@H]1OC[C@H](O)[C@@H]1O)c1ccccc1
[1]
  pIC50: 5.38

## OC[C@H]1[C@@H](O)[C@@H](O)CN1Cc1ccccc1
[1]
  pIC50: 7.05

## OC[C@H]1[C@@H](O)[C@@H](O)CN1Cc1ccc(Br)cc1
[1]
  pIC50: 7.05

## O[C@H]1[C@H]2[C@@H](O)CCCN2C[C@H]1O
[2]
  inhibition: 0%
Bos taurus [3]
  inhibition: 0.8%
[4]
  inhibition: 51%
Penicillium decumbens
  inhibition: 47.5%
[1]
  pIC50: 4.29
[5]
  inhibition: 0%
[6]
  inhibition: 0%
Sus scrofa
  inhibition: 0%
Prunus dulcis
  inhibition: 3.2%
Bos taurus [7]
  inhibition: 5.7%
Escherichia coli
  inhibition: 0%
Helix pomatia
  inhibition: 0%
Aspergillus niger
  inhibition: 1.8%
Oryza sativa
  inhibition: 0%
Homo sapiens
  inhibition: 0%
Bos taurus [8]
  inhibition: 4.5%
Rattus norvegicus
  inhibition: 0%

## O[C@@H]1[C@@H]2[C@H](O)CC(F)(F)CN2C[C@@H]1O
[2]
  inhibition: 0%
Bos taurus [3]
  inhibition: 0.8%
[4]
  inhibition: 44.8%
Penicillium decumbens
  inhibition: 63%
[5]
  inhibition: 0%
[6]
  inhibition: 2.2%
Sus scrofa
  inhibition: 1.5%
Prunus dulcis
  inhibition: 0%
Bos taurus [7]
  inhibition: 18.8%
Escherichia coli
  inhibition: 0%
Helix pomatia
  inhibition: 0%
Aspergillus niger
  inhibition: 0.1%
Oryza sativa
  inhibition: 0%
Homo sapiens
  inhibition: 0.7%
Bos taurus [8]
  inhibition: 10.2%
Rattus norvegicus
  inhibition: 2.7%

## OC[C@@H](O)[C@H]1NC[C@@H](O)[C@H]1O
[1]
  pIC50: 5.41

## O[C@@H]1[C@H](O)C[S+]2CCCS[C@H]12 (stereo partly drawn)
[1]
  pIC50: 4.01

## O[C@H]1[C@H]2[C@H](O)CCCN2C[C@H]1O [TRIDOLGOSIR]
[2]
  inhibition: 0%
Bos taurus [3]
  inhibition: 5.8%
[4]
  inhibition: 0.28%
Penicillium decumbens
  inhibition: 34.2%
[1]
  pIC50: 6.55
[5]
  inhibition: 0%
[6]
  inhibition: 0%
Sus scrofa
  inhibition: 1%
Prunus dulcis
  inhibition: 2.1%
Bos taurus [7]
  inhibition: 8.8%
Escherichia coli
  inhibition: 0%
Helix pomatia
  inhibition: 0%
Aspergillus niger
  inhibition: 8.6%
Oryza sativa
  inhibition: 31.2%
Homo sapiens
  inhibition: 0%
Bos taurus [8]
  inhibition: 11.5%
Rattus norvegicus
  inhibition: 13.1%

## OC[C@@H]1[C@@H](O)[C@@H](O)[C@H]2[C@H](O)CCCN21
[1]
  pIC50: 5.92

## O[C@H]1[C@H]2[C@@H](O)CC(F)(F)CN2C[C@H]1O
[2]
  inhibition: 0%
Bos taurus [3]
  inhibition: 0%
[4]
  inhibition: 12.2%
Penicillium decumbens
  inhibition: 144%
[5]
  inhibition: 1.1%
[6]
  inhibition: 0.4%
Sus scrofa
  inhibition: 1.5%
Prunus dulcis
  inhibition: 3.7%
Bos taurus [7]
  inhibition: 11.4%
Escherichia coli
  inhibition: 0%
Helix pomatia
  inhibition: 0.8%
Aspergillus niger
  inhibition: 1.8%
Oryza sativa
  inhibition: 2.5%
Homo sapiens
  inhibition: 0%
Bos taurus [8]
  inhibition: 5.8%
Rattus norvegicus
  inhibition: 25%

## O[C@@H]1[C@@H]2[C@@H](O)C[C@@H](F)CN2C[C@@H]1O
[2]
  inhibition: 0%
Bos taurus [3]
  inhibition: 21.7%
[4]
  inhibition: 1.6%
Penicillium decumbens
  inhibition: 5.2%
[5]
  inhibition: 6.2%
[6]
  inhibition: 15.6%
Sus scrofa
  inhibition: 36%
Prunus dulcis
  inhibition: 0%
Escherichia coli
  inhibition: 9.3%
Helix pomatia
  inhibition: 1.7%
Aspergillus niger
  inhibition: 2.3%
Oryza sativa
  inhibition: 27.3%
Homo sapiens
  inhibition: 43.5%
Bos taurus [8]
  inhibition: 25.6%
Rattus norvegicus
  inhibition: 47.3%

## O[C@@H]1[C@@H]2[C@H](O)CCCN2C[C@@H]1O
[2]
  inhibition: 0%
Bos taurus [3]
  inhibition: 0%
[4]
  inhibition: 2.8%
Penicillium decumbens
  inhibition: 58%
[5]
  inhibition: 3.4%
[6]
  inhibition: 0%
Sus scrofa
  inhibition: 0%
Prunus dulcis
  inhibition: 1%
Bos taurus [7]
  inhibition: 8.8%
Escherichia coli
  inhibition: 0%
Helix pomatia
  inhibition: 11.7%
Aspergillus niger
  inhibition: 11.4%
Oryza sativa
  inhibition: 0%
Homo sapiens
  inhibition: 3.1%
Bos taurus [8]
  inhibition: 0%
Rattus norvegicus
  inhibition: 0%

## O[C@@H]1[C@@H]2[C@H](O)C[C@H](F)CN2C[C@@H]1O
[2]
  inhibition: 0%
Bos taurus [3]
  inhibition: 41.7%
[4]
  inhibition: 0%
Penicillium decumbens
  inhibition: 52%
[5]
  inhibition: 18%
[6]
  inhibition: 37.6%
Sus scrofa
  inhibition: 0.5%
Prunus dulcis
  inhibition: 3.2%
Escherichia coli
  inhibition: 28.9%
Helix pomatia
  inhibition: 0%
Aspergillus niger
  inhibition: 10.9%
Oryza sativa
  inhibition: 0%
Bos taurus [8]
  inhibition: 38.5%

## Cc1ccc(C(=O)C[C@H]2CC[C@@H](O)[C@@H]3[C@H](O)[C@H](O)CN23)cc1
[1]
  pIC50: 4.54

## O[C@H]1[C@H]2[C@@H](O)C[C@@H](F)CN2C[C@H]1O
[2]
  inhibition: 0%
Bos taurus [3]
  inhibition: 29.2%
[4]
  inhibition: 14.4%
Penicillium decumbens
  inhibition: 118%
[5]
  inhibition: 6.2%
[6]
  inhibition: 5.3%
Sus scrofa
  inhibition: 4.6%
Prunus dulcis
  inhibition: 5.3%
Bos taurus [7]
  inhibition: 15.1%
Escherichia coli
  inhibition: 4.1%
Helix pomatia
  inhibition: 3.3%
Aspergillus niger
  inhibition: 1.4%
Oryza sativa
  inhibition: 14%
Homo sapiens
  inhibition: 17.3%
Bos taurus [8]
  inhibition: 19.9%
Rattus norvegicus
  inhibition: 10.9%

## CC(=O)NCCCC[C@H]1C[C@@H](O)[C@@H]2[C@H](O)[C@H](O)CN2C1
[1]
  pIC50: 4.29

## O[C@@H]1[C@@H]2[C@H](O)C[C@@H](F)CN2C[C@@H]1O
[2]
  inhibition: 0%
Bos taurus [3]
  inhibition: 15%
[4]
  inhibition: 18.8%
Penicillium decumbens
  inhibition: 125%
[5]
  inhibition: 4.5%
[6]
  inhibition: 0%
Sus scrofa
  inhibition: 11.7%
Prunus dulcis
  inhibition: 4.7%
Bos taurus [7]
  inhibition: 0.1%
Escherichia coli
  inhibition: 0%
Helix pomatia
  inhibition: 1.7%
Aspergillus niger
  inhibition: 11.4%
Oryza sativa
  inhibition: 23.5%
Homo sapiens
  inhibition: 3.4%
Bos taurus [8]
  inhibition: 9%
Rattus norvegicus
  inhibition: 11.6%

## NC[C@@H]1[C@@H](O)[C@@H](O)[C@H]2[C@H](O)CCCN21
[1]
  pKi: 7.01

## O[C@@H]1[C@@H]2[C@@H](O)CC(F)(F)CN2C[C@@H]1O
[2]
  inhibition: 0%
[4]
  inhibition: 28.2%
Penicillium decumbens
  inhibition: 2.2%
[5]
  inhibition: 0%
[6]
  inhibition: 0%
Sus scrofa
  inhibition: 28.4%
Prunus dulcis
  inhibition: 10.5%
Bos taurus [7]
  inhibition: 14.1%
Escherichia coli
  inhibition: 0%
Helix pomatia
  inhibition: 0%
Aspergillus niger
  inhibition: 10.9%
Oryza sativa
  inhibition: 0%
Homo sapiens
  inhibition: 0%
Bos taurus [8]
  inhibition: 38.5%
Rattus norvegicus
  inhibition: 0%

## O[C@H]1[C@H]2[C@@H](O)C[C@H](F)CN2C[C@H]1O
[2]
  inhibition: 0%
Bos taurus [3]
  inhibition: 0%
[4]
  inhibition: 14.9%
Penicillium decumbens
  inhibition: 11.3%
[5]
  inhibition: 3.4%
[6]
  inhibition: 3%
Prunus dulcis
  inhibition: 3.2%
Bos taurus [7]
  inhibition: 3.1%
Escherichia coli
  inhibition: 0%
Helix pomatia
  inhibition: 21.7%
Aspergillus niger
  inhibition: 2.3%
Oryza sativa
  inhibition: 15.9%
Homo sapiens
  inhibition: 7.1%
Bos taurus [8]
  inhibition: 3.8%
Rattus norvegicus
  inhibition: 0%

## O=C(OC[C@H](NC[C@H]1OC[C@H](O)[C@@H]1O)c1ccccc1)c1ccc(Br)cc1
[1]
  pIC50: 4.05
